Patent US9833497B2, “Human originated EGF domain proteins and use of the same” (CHENGDU SOURCEBIO LIMITED-LIABILITY COMPANY, priority 2013, dated 2017)

Tests used:
Assay type in all cases: cell-based
E. coli DH5α = experiment: Antibacterial activity: MIC and growth curve against E. coli DH5α in 96-well plate; conditions: minimal inhibitory concentration against E. coli DH5α; 96-well plate, 5×10^5 CFU/mL, 37° C., judged after 8 h
Summary of the method: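 Log-phase DH5α (OD600 about 0.5, 37° C, 185 rpm in LB) was pelleted, resuspended in fresh LB and seeded at 5×10^5 CFU/mL with recombinant protein at 50, 25 and 12.5 μg/mL (two-fold series), in triplicate. Plates were shaken at 175 rpm, 37° C, and OD600 was read every 30 min. MIC was the lowest concentration with no growth.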

E. coli BL21 = experiment: MIC against Gram-negative bacteria: E. coli BL21
Summary of the method: (§1)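 Bacteria grown in LB at 37° C to McFarland 0.5, resuspended and seeded at 5×10^5 CFU/mL in 96-well plates. Purified human EGF-domain proteins two-fold serially diluted, triplicate wells; cultured at 37° C, shaking 175 rpm. MIC = lowest protein concentration with no growth.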

Pseudomonas aeruginosa = experiment: MIC against Gram-negative bacteria: Pseudomonas aeruginosa
Summary of the method: as §1

Klebsiella pneumonia = experiment: MIC against Gram-negative bacteria: Klebsiella pneumonia
Summary of the method: as §1

Enterobacter cloacae = experiment: MIC against Gram-negative bacteria: Enterobacter cloacae
Summary of the method: as §1

Aeromonas hydrophila = experiment: MIC against Gram-negative bacteria: Aeromonas hydrophila
Summary of the method: as §1

Citrobacter diversus = experiment: MIC against Gram-negative bacteria: Citrobacter diversus
Summary of the method: as §1

Moraxella catarrhalis = experiment: MIC against Gram-negative bacteria: Moraxella catarrhalis
Summary of the method: as §1

Proteus mirabilis = experiment: MIC against Gram-negative bacteria: Proteus mirabilis
Summary of the method: as §1

Proteus vulgaris = experiment: MIC against Gram-negative bacteria: Proteus vulgaris
Summary of the method: as §1

Serratia marcescens = experiment: MIC against Gram-negative bacteria: Serratia marcescens
Summary of the method: as §1

[1] = 96-well plate, 5×10^5 CFU/mL, 37° C., 10 h
[2] = 10 h cultivation at 37° C., 5×10^5 CFU/mL, two-fold serial dilution

“PRT668 (DINECRHPGTCPDGRCVNSPGSYTCLACEEGYRGQSGSCV; listed as Homo sapiens)” was tested, and the MIC (E. coli DH5α) was 12.5 µg/mL, the “MIC E. coli BL21” value (E. coli BL21; [1]) was 50 µg/mL and the “MIC P. aeruginosa” value (Pseudomonas aeruginosa; [1]) was 12.5 µg/mL. For the same substance, the “MIC K. pneumonia” value (Klebsiella pneumonia; [1]) was 50 µg/mL, the “MIC E. cloacae” value (Enterobacter cloacae; [1]) was 12.5 µg/mL and the “MIC A. hydrophila” value (Aeromonas hydrophila; [1]) was 50 µg/mL. The “MIC C. diversus” value (Citrobacter diversus; [1]) was 100 µg/mL, the “MIC M. catarrhalis” value (Moraxella catarrhalis; [1]) was 25 µg/mL and the “MIC P. mirabilis” value (Proteus mirabilis; [1]) was 25 µg/mL. For the same substance, the “MIC P. vulgaris” value (Proteus vulgaris; [1]) was 50 µg/mL and the “MIC S. marcescens” value (Serratia marcescens; [1]) was 100 µg/mL.

“PRT1126 (DVRACSSAPCANNRTCVSLDDGLYECSCAPGYSGKDCQ; listed as Homo sapiens)” was tested, and the MIC (E. coli DH5α) was 25 µg/mL, the “MIC E. coli BL21” value (E. coli BL21; [2]) was 50 µg/mL and the “MIC P. aeruginosa” value (Pseudomonas aeruginosa; [2]) was 25 µg/mL. For the same substance, the “MIC K. pneumonia” value (Klebsiella pneumonia; [2]) was 12.5 µg/mL, the “MIC E. cloacae” value (Enterobacter cloacae; [2]) was 25 µg/mL and the “MIC A. hydrophila” value (Aeromonas hydrophila; [2]) was 25 µg/mL. For the same substance, the “MIC C. diversus” value (Citrobacter diversus; [2]) was 50 µg/mL, the “MIC M. catarrhalis” value (Moraxella catarrhalis; [2]) was 12.5 µg/mL and the “MIC P. mirabilis” value (Proteus mirabilis; [2]) was 50 µg/mL. For the same substance, the “MIC P. vulgaris” value (Proteus vulgaris; [2]) was 12.5 µg/mL and the “MIC S. marcescens” value (Serratia marcescens; [2]) was 50 µg/mL.

With “PRT626 (CDCQSAGSLHLQCDDTGTCACKPTVTGWKCDRCLPGFHSLSEGGCRP; listed as Homo sapiens)” the MIC (E. coli DH5α) was 25 µg/mL, the “MIC E. coli BL21” value (E. coli BL21; [1]) was 50 µg/mL and the “MIC P. aeruginosa” value (Pseudomonas aeruginosa; [1]) was 25 µg/mL. For the same substance, the “MIC K. pneumonia” value (Klebsiella pneumonia; [1]) was 12.5 µg/mL, the “MIC E. cloacae” value (Enterobacter cloacae; [1]) was 25 µg/mL and the “MIC A. hydrophila” value (Aeromonas hydrophila; [1]) was 50 µg/mL. The “MIC C. diversus” value (Citrobacter diversus; [1]) was 25 µg/mL, the “MIC M. catarrhalis” value (Moraxella catarrhalis; [1]) was 12.5 µg/mL and the “MIC P. mirabilis” value (Proteus mirabilis; [1]) was 25 µg/mL. The “MIC P. vulgaris” value (Proteus vulgaris; [1]) was 50 µg/mL and the “MIC S. marcescens” value (Serratia marcescens; [1]) was 25 µg/mL.

“PRT560 (GSCHPAGLAPVDPALPEAQVPCMCRAHVEGPSCDRCKPGFWGLSPSNPEGCTR; listed as Homo sapiens)” was tested, and the MIC (E. coli DH5α) was 12.5 µg/mL, the “MIC against E. coli BL21” value (E. coli BL21; [1]) was 25 µg/mL and the “MIC against P. aeruginosa” value (Pseudomonas aeruginosa; [1]) was 50 µg/mL. The “MIC against K. pneumonia” value (Klebsiella pneumonia; [1]) was 25 µg/mL, the “MIC against E. cloacae” value (Enterobacter cloacae; [1]) was 50 µg/mL and the “MIC against A. hydrophila” value (Aeromonas hydrophila; [1]) was 25 µg/mL. The “MIC against C. diversus” value (Citrobacter diversus; [1]) was 50 µg/mL, the “MIC against M. catarrhalis” value (Moraxella catarrhalis; [1]) was 25 µg/mL and the “MIC against P. mirabilis” value (Proteus mirabilis; [1]) was 50 µg/mL. The “MIC against P. vulgaris” value (Proteus vulgaris; [1]) was 50 µg/mL and the “MIC against S. marcescens” value (Serratia marcescens; [1]) was 50 µg/mL.

“PRT627 (CTCNPAGSLDTCDPRSGRCPCKENVEGNLCDRCRPGTFNLQPHNPAGCSS; listed as Homo sapiens)” was tested, and the MIC (E. coli DH5α) was 12.5 µg/mL, the “MIC E. coli BL21” value (E. coli BL21; [1]) was 25 µg/mL and the “MIC P. aeruginosa” value (Pseudomonas aeruginosa; [1]) was 12.5 µg/mL. For the same substance, the “MIC K. pneumonia” value (Klebsiella pneumonia; [1]) was 12.5 µg/mL, the “MIC E. cloacae” value (Enterobacter cloacae; [1]) was 12.5 µg/mL and the “MIC A. hydrophila” value (Aeromonas hydrophila; [1]) was 12.5 µg/mL. The “MIC C. diversus” value (Citrobacter diversus; [1]) was 12.5 µg/mL, the “MIC M. catarrhalis” value (Moraxella catarrhalis; [1]) was 12.5 µg/mL and the “MIC P. mirabilis” value (Proteus mirabilis; [1]) was 50 µg/mL. For the same substance, the “MIC P. vulgaris” value (Proteus vulgaris; [1]) was 12.5 µg/mL and the “MIC S. marcescens” value (Serratia marcescens; [1]) was 50 µg/mL.

With “PRT962 (NVDDCSPDPCHHGRCVDGIASFSCACAPGYTGTRCE; listed as Homo sapiens)” the MIC (E. coli DH5α) was 25 µg/mL, the MIC (E. coli BL21; E. coli BL21, 10 h cultivation at 37° C.) was 50 µg/mL and the MIC (Pseudomonas aeruginosa; P. aeruginosa, 10 h cultivation at 37° C.) was 25 µg/mL. It also gave an MIC (Klebsiella pneumonia; K. pneumonia, 10 h cultivation at 37° C.) of 12.5 µg/mL, an MIC (Enterobacter cloacae; E. cloacae, 10 h cultivation at 37° C.) of 25 µg/mL and an MIC (Aeromonas hydrophila; A. hydrophila, 10 h cultivation at 37° C.) of 50 µg/mL. For the same substance, the MIC (Citrobacter diversus; C. diversus, 10 h cultivation at 37° C.) was 12.5 µg/mL, the MIC (Moraxella catarrhalis; M. catarrhalis, 10 h cultivation at 37° C.) was 25 µg/mL and the MIC (Proteus mirabilis; P. mirabilis, 10 h cultivation at 37° C.) was 50 µg/mL. The MIC (Proteus vulgaris; P. vulgaris, 10 h cultivation at 37° C.) was 12.5 µg/mL and the MIC (Serratia marcescens; S. marcescens, 10 h cultivation at 37° C.) was 25 µg/mL.

With “PRT195 (MGYNCNATTKCKGKGICNNFGNCQCFPGHRPPDCK; listed as Homo sapiens)” the MIC (E. coli DH5α) was 25 µg/mL, the “MIC (μg/mL) E. coli BL21” value (E. coli BL21; E. coli BL21, 10 h cultivation at 37° C., 5×10^5 CFU/mL) was 12.5 µg/mL and the “MIC (μg/mL) P. aeruginosa” value (Pseudomonas aeruginosa; P. aeruginosa, 10 h cultivation at 37° C., 5×10^5 CFU/mL) was 50 µg/mL. The “MIC (μg/mL) K. pneumonia” value (Klebsiella pneumonia; K. pneumonia, 10 h cultivation at 37° C., 5×10^5 CFU/mL) was 50 µg/mL, the “MIC (μg/mL) E. cloacae” value (Enterobacter cloacae; E. cloacae, 10 h cultivation at 37° C., 5×10^5 CFU/mL) was 12.5 µg/mL and the “MIC (μg/mL) A. hydrophila” value (Aeromonas hydrophila; A. hydrophila, 10 h cultivation at 37° C., 5×10^5 CFU/mL) was 50 µg/mL. For the same substance, the “MIC (μg/mL) C. diversus” value (Citrobacter diversus; C. diversus, 10 h cultivation at 37° C., 5×10^5 CFU/mL) was 12.5 µg/mL, the “MIC (μg/mL) M. catarrhalis” value (Moraxella catarrhalis; M. catarrhalis, 10 h cultivation at 37° C., 5×10^5 CFU/mL) was 25 µg/mL and the “MIC (μg/mL) P. mirabilis” value (Proteus mirabilis; P. mirabilis, 10 h cultivation at 37° C., 5×10^5 CFU/mL) was 50 µg/mL. The “MIC (μg/mL) P. vulgaris” value (Proteus vulgaris; P. vulgaris, 10 h cultivation at 37° C., 5×10^5 CFU/mL) was 25 µg/mL and the “MIC (μg/mL) S. marcescens” value (Serratia marcescens; S. marcescens, 10 h cultivation at 37° C., 5×10^5 CFU/mL) was 12.5 µg/mL.
